Experimental data as given in publication PMC3983056 (PLoS Pathogens, 2014).
Where “and” joins values, the source holds several entries; their conditions need not be identical. Equal values may be shown once. Read-outs that look alike come from different tables or passages of the source.

Tests used:
[1] = tested on: HIV expressing a luciferase reporter gene (NL4-3-Luc) in latently infected primary CD4 T cells; assay: microbe, parasite or virus in culture; format: cell-based; details: Human immunodeficiency virus 1, NL43, CD4+ T, 48 h, continuous 48 hours, cells from three healthy donors, mean ± SD
Excerpt: To assess clinically tested HDACi for their ability to activate HIV from latency, we first employed a previously described in vitro HIV latency model, [30] with several modifications to increase the sensitivity of detection. The assay involves freshly isolated naïve CD4 T cells from healthy donors polarized to a Th0 phenotype, which mimics memory CD4 T cells. These Th0 cells are then infected with HIV expressing a luciferase reporter gene and cultured for an additional 7 to 10 days until a latent infection is established.
Total peripheral blood mononuclear cells (PBMCs) were obtained from healthy HIV-negative donors by leukapheresis (AllCells, Inc, Emeryville, CA). […] Purified naive CD4+ T cells were activated by incubation with anti-CD3/CD28 magnetic Dynabeads (1 bead: 2 cells ratio, Life Technologies), 1 µg/ml anti-IL-4 (R&D Systems, Minneapolis, MN), 2 µg/ml anti-IL-12p70 antibodies (R&D Systems), and 10 ng/ml TGF-β (R&D Systems) for 3 days, [59]. Following the removal of anti-CD3/CD28 beads and antibodies, cells were maintained in 30 U/ml IL-2 (Life Technologies) for 2 days. Cells were then infected with NL4.3-Luc in the presence of 50 µg/ml DEAE for 3 hours. Cells were maintained in the continued presence of 30 U/ml IL-2 throughout the infection and subsequent rest period with culture medium with fresh IL-2 replaced every 2–3 days. Seven days post-infection, 20 µl of latently infected cells were dispensed into 384 well plates using a MicroFlo dispenser (Biotek Insturments, VT) at 10,000 cells/well containing 100 nl of compound solutions delivered by the Echo acoustic-based liquid dispenser (Labcyte, Sunnyvale, CA). After a 48-hour incubation, 16 µl/well BriteGlo (Promega, Madison, WI) was added and luminescence measured using the Envision plate reader (Perkin Elmer, Waltham, MA). Compound-associated cytotoxicity was determined in latently infected cells in parallel with the virus activation assay. Cells were incubated with compounds for 48 hours at 37°C, and cell viability was determined using Cell Titer Glo reagent (Promega).

[2] = target: T1, human HDAC-7 (Homo sapiens, UniProt Q8WUI4); assay: HDAC inhibition assay; format: biochemical
T1 construct: purchased Reaction Biology Corporation (Malvern, PA)
Procedure: Determination of HDACi potency against individual HDAC enzymes was performed at Reaction Biology Corporation (Malvern, PA). In brief, human HDAC-1 to -11 enzymes were incubated with serial dilutions of HDACi and fluorogenic peptide substrates (50 µM) in a 96-well format assay. […] Fluorogenic peptide Boc-Lys(trifluoroacetyl)-AMC was used as a substrate for HDAC enzymes 4, 5, 7, and 9.

[3] = tested on: latent HIV in resting CD4 T cells from HIV-infected patients on suppressive cART; format: cell-based; details: for HIV RNA avg: 40 nM RMD, one value per donor; for HIV RNA [copies/mil cells] avg: Figure 5
Procedure: To examine the kinetics of HIV induction, we analyzed cell-associated viral RNA levels at 6, 12, 24, and 48 hours after treatment initiation.
Lysates were filtered through a Qiashredder (Qiagen).

[4] = tested on: latent HIV in resting CD4 T cells from HIV-infected patients on suppressive cART; assay: Ex vivo release of extracellular HIV RNA into culture supernatants, resting CD4 T cells; format: cell-based
Procedure: HIV-infected patients participating in the study were selected based on sustained plasma viral load suppression (<50 copies/ml for >12 months), CD4 counts (>350 cells/µL), and absence of co-infection with hepatitis B or C virus (Supplementary Table S1). Clinical laboratory results were reconfirmed 2 weeks before leukapheresis or blood draw. Leukapheresis was conducted for 3–4 hours, and samples were processed within 2 hours after collection. The leukapheresis product was diluted 1∶1 with PBS and layered over Ficoll for isolation of PBMCs. […] Resting CD4 T cells were isolated by first enriching total CD4 T cells (StemCell Technologies) and subsequently depleting HLA-DR-, CD25-, and CD69-positive cells via negative selection (Miltenyi Biotec, Auburn, CA).
To assess HIV activation by HDACi, up to 5 million CD4 T cells were plated in 24-well plates in 2.5 ml of media, supplemented with antiretrovirals (ARVs) (100 nM elvitegravir and 100–300 nM efavirenz) for the entire duration of culture incubation. HDACi were added at specified concentrations on day 0 and cells or culture supernatants were harvested for the analysis of HIV RNA at the indicated time points (6–48 hours or 6–7 days, respectively). For HDACi pulse treatment, cultures were washed twice using ARV-containing media at 4 or 24 hours after addition of HDACi and incubated with ARVs until harvest. To measure HIV RNA levels, 1 ml of culture supernatant was analyzed by a robotic COBAS AmpliPrep/TaqMan system (Roche Diagnostics, Indianapolis, IN), which extracts total nucleic acid and quantifies HIV RNA in copies per milliliter using the HIV-1 Test, v2.0 kit (Roche Diagnostics). For the measurement of cell-associated HIV RNA levels, cells were washed with PBS, counted, and lysed (Qiagen RLT buffer, 400 µl for every 2 million cells; Qiagen, Venlo, Netherlands). Lysates were filtered through a Qiashredder (Qiagen). Total RNA was prepared from the lysates (400 µl) using a robotic system (QIAsymphony, Qiagen) that incorporates a DNase I digestion step to eliminate cellular DNA. The resulting total RNA was eluted with 200 µl of buffer, diluted to 1 ml with nuclease-free water, and analyzed by COBAS using the HIV-1 Test v2.0 kit. Preparations of both cell-associated RNA and supernatant total nucleic acids were tested for potential contamination with HIV DNA and/or host DNA by performing the PCR amplification in the presence and absence of reverse transcriptase and by a detection of GAPDH-encoding host DNA sequence.
HIV RNA-induction experiments were conducted using 5 to 6 replicates for every experimental condition, including vehicle-treated controls. Fold induction in HIV RNA levels was calculated as a ratio of mean signals from compound-treated and vehicle (DMSO)-treated control samples from the same donor under identical conditions. […] For experiments using blood-derived resting CD4 T cells, culture supernatants from 3 replicate wells were combined and analyzed using the COBAS system.

[5] = tested on: total class I and II HDAC enzyme activity in resting CD4 T cells; details: pulse RMD 4 hours, VOR 24 hours, PNB 24 hours, 6 to 48 hours
Procedure: Resting CD4 T cells obtained from HIV-infected patients on suppressive cART were incubated with serial dilutions of HDACi in 96-well plates at 10,000 cells/well for indicated time and then lysed by repeated freezing and thawing. Total cellular HDAC activity was measured using the HDAC-Glo I/II assay kit (Promega) according to the manufacturer's protocol.

[6] = tested on: PBMC cultures from HIV-infected patients; assay: Cytokine induction in PBMC cultures; format: cell-based, human; details: RMD treatment, data not shown
Excerpt: HIV latency reversing agents that would be suitable for the therapeutic use in vivo should not induce non-specific immune activation.

[7] = tested on: HIV gag-pol RNA from resting CD4 T cells of a cART-suppressed patient; assay: Single-genome sequencing of HIV RNA in culture supernatants; format: cell-based; details: 2.5 nM RMD, continuous, day 7
Excerpt: In parallel, we assessed the sequence diversity of HIV proviruses integrated in genomic DNA of resting CD4 T cells from the same culture.
Figure 8 Phylogenetic analysis of HIV sequences expressed ex vivo following the latency reversal. […] Single-genome sequencing was used to analyze patient HIV proviral DNA and plasma RNA at the initiation of treatment (day 0), together with the ex vivo induced HIV RNA in cell culture supernatants at the end of treatment (day 7). […] Identified HIV DNA and RNA sequences were aligned and the phylogenetic tree was constructed using Clustal W and MEAG5.
Single-genome sequencing of a portion of HIV-1 gag-pro-pol amplified from cell culture supernatants or cellular DNA extracts was performed as previously described [34]–[36]. Sequences were aligned using ClustalW and neighbor-joining phylogenetic analysis was performed using MEGA5. Trees were rooted on the subtype B consensus sequence (www.hiv.lanl.gov).

[8] = Clinical systemic exposure; format: in vivo, human
[9] = human, in vivo; cited from earlier work

T1 sequence (Q8WUI4 whole entry): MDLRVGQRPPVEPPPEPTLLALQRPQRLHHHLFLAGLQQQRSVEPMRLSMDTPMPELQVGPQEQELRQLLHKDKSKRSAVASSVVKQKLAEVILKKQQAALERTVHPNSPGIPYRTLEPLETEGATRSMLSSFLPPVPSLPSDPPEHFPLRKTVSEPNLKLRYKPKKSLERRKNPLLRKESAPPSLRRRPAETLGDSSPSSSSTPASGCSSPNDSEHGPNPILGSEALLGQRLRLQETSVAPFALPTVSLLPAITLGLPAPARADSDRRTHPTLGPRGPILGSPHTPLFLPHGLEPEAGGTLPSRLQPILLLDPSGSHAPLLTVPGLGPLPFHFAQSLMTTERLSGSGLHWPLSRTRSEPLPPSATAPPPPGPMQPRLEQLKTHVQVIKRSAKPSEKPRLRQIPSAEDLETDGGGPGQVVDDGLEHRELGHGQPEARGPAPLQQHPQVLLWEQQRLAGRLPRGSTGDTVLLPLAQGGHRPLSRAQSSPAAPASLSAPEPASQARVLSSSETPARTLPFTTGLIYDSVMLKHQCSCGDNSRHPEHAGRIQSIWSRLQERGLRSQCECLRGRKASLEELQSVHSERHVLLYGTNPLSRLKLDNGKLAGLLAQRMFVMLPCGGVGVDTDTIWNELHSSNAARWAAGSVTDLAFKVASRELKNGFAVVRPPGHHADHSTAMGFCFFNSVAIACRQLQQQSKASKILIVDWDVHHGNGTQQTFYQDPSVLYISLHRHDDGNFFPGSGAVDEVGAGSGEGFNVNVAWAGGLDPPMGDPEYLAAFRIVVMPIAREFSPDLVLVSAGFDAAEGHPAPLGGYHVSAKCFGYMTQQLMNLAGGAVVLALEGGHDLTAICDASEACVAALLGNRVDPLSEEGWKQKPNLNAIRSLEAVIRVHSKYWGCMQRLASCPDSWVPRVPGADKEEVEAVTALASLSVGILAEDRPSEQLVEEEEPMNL

In the case of `C/C=C1\NC(=O)[C@H]2CSSCC/C=C/[C@H](CC(=O)N[C@H](C(C)C)C(=O)N2)OC(=O)[C@H](C(C)C)NC1=O` [RMD, romidepsin], the EC50 [1] is reported as 4.5 ± 1 nM, the IC50 [2] is reported as 3.4 µM and the “HIV RNA avg” value ([3]; Figure 2B, 6hr) is reported as 9642 copies/mil cells and 324 copies/mil cells and 14747 copies/mil cells and 6687 copies/mil cells and 2352 copies/mil cells. The “HIV RNA avg” value ([3]; Figure 2B, 12hr) was 6663 copies/mil cells and 352 copies/mil cells and 13013 copies/mil cells and 9057 copies/mil cells and 2763 copies/mil cells, the “HIV RNA avg” value ([3]; Figure 2B, 24hr) was 8902 copies/mil cells and 542 copies/mil cells and 17191 copies/mil cells and 14960 copies/mil cells and 4744 copies/mil cells and the “HIV RNA avg” value ([3]; Figure 2B, 48hr) was 3882 copies/mil cells and 831 copies/mil cells and 21497 copies/mil cells and 14409 copies/mil cells and 7107 copies/mil cells. For the same compound, the “HIV RNA avg” value ([3]; Figure 4, 6 hours) was 6481 copies/mil cells and 2385 copies/mil cells, the “HIV RNA avg” value ([3]; Figure 4, 24 hours) was 15888 copies/mil cells and 7188 copies/mil cells and the “HIV RNA avg” value ([3]; Figure 4, 48 hours) was 8834 copies/mil cells and 9481 copies/mil cells. For the same compound, the “HIV RNA [copies/mil cells] avg” value ([3]; 3.5 nM RMD, 6 hours, donor 6) was 4270 copies/mil cells, the “HIV RNA [copies/mil cells] avg” value ([3]; 3.5 nM RMD, 6 hours, donor 7) was 3321 copies/mil cells and the “HIV RNA [copies/mil cells] avg” value ([3]; 3.5 nM RMD, 6 hours, donor 8) was 816 copies/mil cells. For the same compound, the “HIV RNA [copies/mil cells] avg” value ([3]; 3.5 nM RMD, 12 hours, donor 6) was 3943 copies/mil cells, the “HIV RNA [copies/mil cells] avg” value ([3]; 3.5 nM RMD, 12 hours, donor 7) was 2314 copies/mil cells and the “HIV RNA [copies/mil cells] avg” value ([3]; 3.5 nM RMD, 12 hours, donor 8) was 526 copies/mil cells. For the same compound, the “HIV RNA [copies/mil cells] avg” value ([3]; 3.5 nM RMD, 24 hours, donor 6) was 4673 copies/mil cells, the “HIV RNA [copies/mil cells] avg” value ([3]; 3.5 nM RMD, 24 hours, donor 7) was 2633 copies/mil cells and the “HIV RNA [copies/mil cells] avg” value ([3]; 3.5 nM RMD, 24 hours, donor 8) was 586 copies/mil cells. For the same compound, the “HIV RNA [copies/mil cells] avg” value ([3]; 3.5 nM RMD, 48 hours, donor 6) was 3640 copies/mil cells, the “HIV RNA [copies/mil cells] avg” value ([3]; 3.5 nM RMD, 48 hours, donor 7) was 4009 copies/mil cells and the “HIV RNA [copies/mil cells] avg” value ([3]; 3.5 nM RMD, 48 hours, donor 8) was 769 copies/mil cells. For the same compound, the “HIV RNA [copies/mil cells] avg” value ([3]; 15 nM RMD, 6 hours, donor 6) was 9276 copies/mil cells, the “HIV RNA [copies/mil cells] avg” value ([3]; 15 nM RMD, 6 hours, donor 7) was 5400 copies/mil cells and the “HIV RNA [copies/mil cells] avg” value ([3]; 15 nM RMD, 6 hours, donor 8) was 2254 copies/mil cells. The “HIV RNA [copies/mil cells] avg” value ([3]; 15 nM RMD, 12 hours, donor 6) was 15172 copies/mil cells, the “HIV RNA [copies/mil cells] avg” value ([3]; 15 nM RMD, 12 hours, donor 7) was 4260 copies/mil cells and the “HIV RNA [copies/mil cells] avg” value ([3]; 15 nM RMD, 12 hours, donor 8) was 1826 copies/mil cells. For the same compound, the “HIV RNA [copies/mil cells] avg” value ([3]; 15 nM RMD, 24 hours, donor 6) was 24438 copies/mil cells, the “HIV RNA [copies/mil cells] avg” value ([3]; 15 nM RMD, 24 hours, donor 7) was 9787 copies/mil cells and the “HIV RNA [copies/mil cells] avg” value ([3]; 15 nM RMD, 24 hours, donor 8) was 4270 copies/mil cells. The “HIV RNA [copies/mil cells] avg” value ([3]; 15 nM RMD, 48 hours, donor 6) was 19207 copies/mil cells, the “HIV RNA [copies/mil cells] avg” value ([3]; 15 nM RMD, 48 hours, donor 7) was 13754 copies/mil cells and the “HIV RNA [copies/mil cells] avg” value ([3]; 15 nM RMD, 48 hours, donor 8) was 3470 copies/mil cells. The “HIV RNA [copies/mil cells] avg” value ([3]; 45 nM RMD, 6 hours, donor 6) was 14747 copies/mil cells, the “HIV RNA [copies/mil cells] avg” value ([3]; 45 nM RMD, 6 hours, donor 7) was 6687 copies/mil cells and the “HIV RNA [copies/mil cells] avg” value ([3]; 45 nM RMD, 6 hours, donor 8) was 2352 copies/mil cells. The “HIV RNA [copies/mil cells] avg” value ([3]; 45 nM RMD, 12 hours, donor 6) was 13013 copies/mil cells, the “HIV RNA [copies/mil cells] avg” value ([3]; 45 nM RMD, 12 hours, donor 7) was 9057 copies/mil cells and the “HIV RNA [copies/mil cells] avg” value ([3]; 45 nM RMD, 12 hours, donor 8) was 2763 copies/mil cells. For the same compound, the “HIV RNA [copies/mil cells] avg” value ([3]; 45 nM RMD, 24 hours, donor 6) was 17191 copies/mil cells, the “HIV RNA [copies/mil cells] avg” value ([3]; 45 nM RMD, 24 hours, donor 7) was 14960 copies/mil cells and the “HIV RNA [copies/mil cells] avg” value ([3]; 45 nM RMD, 24 hours, donor 8) was 4744 copies/mil cells. For the same compound, the “HIV RNA [copies/mil cells] avg” value ([3]; 45 nM RMD, 48 hours, donor 6) was 21497 copies/mil cells, the “HIV RNA [copies/mil cells] avg” value ([3]; 45 nM RMD, 48 hours, donor 7) was 14409 copies/mil cells and the “HIV RNA [copies/mil cells] avg” value ([3]; 45 nM RMD, 48 hours, donor 8) was 7107 copies/mil cells. For the same compound, the “induction of HIV transcription” value ([3]; resting CD4 T cells, 3.5 nM RMD for 4 hours) was “minimal induction”, the “increase in intracellular HIV RNA levels versus vehicle” value ([3]; resting CD4 T cells, 40 nM RMD for 4 hours, peak between 24 and 48 hours) was 6 fold and the “persistence of intracellular HIV RNA induction” value ([3]; resting CD4 T cells, pulse RMD 4 hours, VOR 24 hours, PNB 24 hours, 6 to 48 hours) was “persisted throughout the 48-hour incubation period”. For the same compound, the “HIV RNA” value ([4]; Figure 3C, 2.5 nM RMD, 7 days, one value per donor) was 1205 copies/mL and 20 copies/mL and 2949 copies/mL and 560 copies/mL and 341 copies/mL and 86 copies/mL and 137 copies/mL, the “donors with induced HIV RNA release” value ([4]; resting CD4 T cells, 2.5 nM RMD continuous 6 days) was 6 of 8 and the “HIV RNA in culture supernatants, longitudinal samples” value ([4]; resting CD4 T cells, 7 days continuous RMD, high-responding patient, three longitudinal samples) was “robust and reproducible dose-dependent HIV RNA increase”. The “longitudinal samples with concentration-dependent effect on viral expression” value ([4]; resting CD4 T cells, 7 days continuous RMD, low-responding patient) was 2 of 3, the “persistence of inhibition of cell-associated HDAC activity” value [5] was “persisted throughout the 48-hour incubation period” and the “induction of IFN-α, IFN-γ, TNF-α, TGF-β, IL-2, IL-7 or other cytokines” value [6] was “no significant induction”. The “sequences of HIV RNA collected in culture supernatants” value [7] was 4, the “Free drug concentration, clinical systemic exposure” value ([8]; at Cmax, RMD 14 mg/m^2 i.v., VOR 400 mg p.o.) was 56 nM and the “Fraction of clinical exposure” value ([8]; ratio of free drug concentration in cell culture media (RMD 40 nM, VOR 1,000 nM) and in serum of clinically treated patients) was 39%. For the same compound, the “most common adverse reactions” value [9] was “thrombocytopenia, neutropenia, lymphopenia, nausea, and fatigue”.
